This note sets out measurements from article PMC6954215, “Structures of β-glycosidase LXYL-P1-2 reveals the product binding state of GH3 family and a specific pocket for Taxol recognition” (Communications Biology, 2020).

In one experiment the target is T1, LXYL-P1-2 (Lentinula edodes, UniProt G8GLP2, E529Q).
T1 construct: expressed in Pichia pastoris GS115 from pPIC3.5K-lxyl-p1-2; KEX2 cleavage after Arg35, mature N-terminus Asp36; endoglycosidase-treated for crystals; tetramer
Briefly: X-ray crystallography, […] Å. The class given is binding. Conditions: co-crystallised with XDT, cleaved in crystal; product complex with xylose; 0.1 M Hepes pH 7.5, 16 °C.

The target of experiment [1] is β-xylosidase/glucosidase LXYL-P1-2 (Lentinula edodes). Nature of the experiment: crystal structure; native crystal, endoglycosidase-treated protein at 10 mg/ml, hanging drop at 16 °C, 13% PEG3350, 0.1 M Tris-HCl pH 8.5, 0.2% MgCl2; 2.4 Å; tetramer in the asymmetric unit.
Experiment [2] shares this target. Briefly: SEC; molecular weight by gel filtration; conditions not given.

In the case of `CC(=O)O[C@@]12CO[C@@H]1C[C@H](O)[C@@]1(C)C(=O)[C@H](O)C3=C(C)[C@@H](OC(=O)[C@H](O)[C@@H](NC(=O)c4ccccc4)c4ccccc4)C[C@@](O)([C@@H](OC(=O)c4ccccc4)[C@H]21)C3(C)C` [10-deacetyltaxol], the “X-ray crystallography, 2.27 Å” value on LXYL-P1-2 is “The electron density clearly shows the existence of xylose and DT”.
For “β-xylosidase/glucosidase LXYL-P1-2 (enzyme)”, the stoichiometry N in experiment [1] and in experiment [2] was 4 throughout.
Turning to `OC1OC[C@@H](O)[C@H](O)[C@H]1O` (stereo partly shown) [xylose], the “X-ray crystallography, 2.27 Å” value on LXYL-P1-2 was “The electron density clearly shows the existence of xylose and DT”.

What is called stoichiometry N is the number of molecules, sites or subunits per partner or assembly.
